Experimental data: patent US7119072B2, “Macrocyclic peptides active against the hepatitis C virus” (Boehringer Ingelheim (Canada) Ltd., priority 2002, dated 2006)

Assay: In vivo oral absorption screen / pharmacokinetic assay in the rat
Settings: male, Sprague Dawley, rat plasma, dose of 5 mg/kg in Methocel:Tween20 (0.5%:0.3%), read-out: area under the curve (AUC)
Source text: More explicitly, the following assay, an in vivo oral absorption screen, was used to determine plasma levels of test compounds in a rat after oral administration: The selection of compounds to be pooled into a “cassette” was based on their structural similarity and physicochemical properties. A solid phase extraction method applicable to all the selected compounds was established. Based on the initial testing where each compound was spiked into rat plasma and run through HPLC or HPLC/MS at a concentration of 0.5 μM, the retention time, ionic mass, and the possible separation among compounds by HPLC and/or HPLC/MS were used as basis for pooling 3–4 compounds into one “cassette”. Each “cassette” contains 3–4 compounds at 5 or 4 mg/kg for each compound. The cassettes were prepared as an oral suspension in 0.5% aqueous methylcellulose and 0.3% of polyoxyethylene (20) sorbiton monooleate (Tween-80). The dosing volume was 10 ml/kg via oral gavage. Male Sprague Dawley rats were fasted overnight in individual cages, with access to aqueous 10% dextrose. Two rats were dosed with each “cassette”. Plasma samples (˜1 ml) were collected at 1 and 2 h post-dosing from the 2 rats and pooled for extraction and analysis. […] Samples were analyzed by HPLC and HPLC/MS for comparison purpose. […]

Compound | AUC [µM·h]
COc1ccc2c(O[C@@H]3C[C@H]4C(=O)N[C@]5(C(=O)O)C[C@H]5/C=C\CCCCC[C@H](NC(=O)OC5CCCC5)C(=O)N4C3)cc(-c3csc(NC4CCCC4)n3)nc2c1 [Compound 101] | 16
COc1ccc2c(O[C@@H]3C[C@H]4C(=O)N[C@]5(C(=O)O)C[C@H]5/C=C\CCCCC[C@H](NC(=O)OC5CCCC5)C(=O)N4C3)cc(-c3csc(NC4CCCCC4)n3)nc2c1 [Compound 102] | 18
